Each structure is given as a SMILES string.

For orientation: IC50 means the concentration that inhibits the measured activity by half.

One assay has as its target T1, Estrogen receptor (Homo sapiens, UniProt P03372).
T1 sequence (P03372 whole entry): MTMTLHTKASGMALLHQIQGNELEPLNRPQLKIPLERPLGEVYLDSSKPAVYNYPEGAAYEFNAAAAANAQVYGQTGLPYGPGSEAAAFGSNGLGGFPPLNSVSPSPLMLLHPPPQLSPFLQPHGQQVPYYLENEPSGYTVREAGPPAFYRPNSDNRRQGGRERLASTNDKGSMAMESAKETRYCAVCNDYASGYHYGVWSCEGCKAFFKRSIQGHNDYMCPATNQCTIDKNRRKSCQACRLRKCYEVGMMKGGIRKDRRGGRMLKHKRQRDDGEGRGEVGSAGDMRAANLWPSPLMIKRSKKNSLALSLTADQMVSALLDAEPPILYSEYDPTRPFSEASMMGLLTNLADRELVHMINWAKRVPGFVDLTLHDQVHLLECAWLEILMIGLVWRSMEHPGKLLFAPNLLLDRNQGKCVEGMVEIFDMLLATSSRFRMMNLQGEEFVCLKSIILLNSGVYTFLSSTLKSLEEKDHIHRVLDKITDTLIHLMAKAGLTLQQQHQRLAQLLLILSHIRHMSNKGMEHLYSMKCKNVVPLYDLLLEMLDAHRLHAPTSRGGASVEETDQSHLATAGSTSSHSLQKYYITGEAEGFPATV
The experiment in a line: Inhibition of ER (unknown origin) by luciferase reporter assay. (In general: Reporter assays use an easily measured gene product as a stand-in for the process of interest.)

Assay [1] can be described thus: Downregulation of ER in human MCF7 cells assessed as […] measured after 2 days EIA assay. Format: functional, cell-based. Particulars: MCF7, 48 h.
The test system of another assay is Rattus norvegicus. The assay can be described thus: Anti-uterotrophic activity in rat at 10 mg/kg, sc administered once daily for 3 days relative to control. Format: functional. As to conditions: time 3 day.
The subject of assay [2] is MCF7. The experiment in a line: Antiproliferative activity against human MCF7 cells. Format: functional, cell-based.
Assay [3] can be described thus: Inhibition of ESR1 Y537S mutant LBD (unknown origin) transfected in SK-BR-3 cells measured after 22 hrs by luciferase assay. The class given is cell-based. As to conditions: Homo sapiens, SK-BR-3, 22 h.
Assay [4] has as its system MCF7. The experiment in a line: Antiproliferative activity against human MCF7 cells assessed as reduction in cell proliferation. The class given is functional, cell-based.

For the compound `C[C@]12CCC3c4ccc(O)cc4C[C@@H](CCCCCCCC[C@H](CCCC(F)(F)C(F)(F)C(F)(F)C(F)(F)F)C(=O)O)C3C1CCC2=O` (some centres not stated), the results for the half-maximal inhibitory concentration (IC50) (against Estrogen receptor; in assay [1]) were 49.8 nM and 24 nM, respectively.

`CCCCN(C)C(=O)CCCCCCCCCC[C@@H]1Cc2cc(O)ccc2C2CC[C@@]3(C)C(CC[C@@H]3O)C21` (some centres not stated) gave an Activity in the assay on Rattus norvegicus of 105%.

Regarding `CN(CCCCC[C@@H]1Cc2cc(O)ccc2C2C1C1CC[C@H](O)[C@@]1(C)C[C@@H]2F)CCCSCCCC(F)(F)C(F)(F)F` (some centres not stated), the midpoint of inhibition with MCF7 [2], the IC50, lay at 2.4 nM.

In turn, `CCCCNC(=O)CCCCCCCCCC[C@@H]1Cc2cc(O)ccc2C2CC[C@@]3(C)C(CC[C@@H]3O)C21` (some centres not stated) gave an Activity with Rattus norvegicus of 100%.

In turn, `CN(CCCCCCC(F)(F)C(F)(F)C(F)(F)C(F)(F)F)CCCCC[C@@H]1Cc2cc(O)ccc2C2C1C1CC[C@H](O)[C@@]1(C)C[C@@H]2F` (some centres not stated) displayed an IC50 in the assay with MCF7 [2] of 1.9 nM.

Regarding `CC1=C(c2ccc(O)cc2)[C@H](c2ccc(OCCN3CC[C@@H](C)C3)cc2)Oc2cc(O)ccc21`, the IC50 in the assay with MCF7 [2] was determined as 9.2 nM; in assay [3] it was 8 nM.

Compound `C[C@]12C[C@H](c3ccc(OCCCCCS(=O)(=O)CCCC(F)(F)C(F)(F)F)cc3)C3c4ccc(O)cc4CCC3C1CC[C@@H]2O` (some centres not stated) displayed an IC50 in the assay on MCF7 [2] of 0.13 nM.

Take `CCNCCc1ccc(CN(CC)c2cc(OC)ccc2[C@@H]2CCc3cc(O)ccc3C2)cc1` [ELACESTRANT]: in the assay with MCF7 [4], the IC50 turned out to be 4.2 nM.

With `C[C@]12CC[C@@H]3c4ccc(O)cc4C[C@@H](CCCCCCCCC[S+]([O-])CCCC(F)(F)C(F)(F)F)[C@H]3[C@@H]1CC[C@@H]2O` (some centres not stated) [FULVESTRANT], the figures for the IC50 (in the assay with MCF7 [2]; in assay [3]) were 0.35 nM and 22 nM, respectively.

Source of the values: ChEMBL document CHEMBL5230133, “Selective Estrogen Receptor Degraders (SERDs): A Promising Strategy for Estrogen Receptor Positive Endocrine-Resistant Breast Cancer” (J Med Chem, 2020).
